# According to a compilation of properties of binary mixtures (doi:10.1016/j.jct.2020.106093):
# Experiment: xn = mol fraction of the nth substance listed
# Details: 100.9 kPa, x2 = 0
structure (smiles),measurement,setting,value
O + CC(=O)[O-].CC[NH2+]CC,viscosity,283.15 K,1.306 mPa·s
same,viscosity,288.15 K,1.138 mPa·s
same,viscosity,290.65 K,1.066 mPa·s
same,viscosity,293.15 K,1.002 mPa·s
same,viscosity,295.65 K,0.943 mPa·s
same,viscosity,298.15 K,0.89 mPa·s
same,viscosity,303.15 K,0.797 mPa·s
same,viscosity,305.65 K,0.757 mPa·s
same,viscosity,308.15 K,0.719 mPa·s
same,viscosity,310.65 K,0.685 mPa·s
same,speed of sound,313.15 K,1529.2 m/s
same,viscosity,313.15 K,0.653 mPa·s
same,viscosity,315.65 K,0.624 mPa·s
same,speed of sound,318.15 K,1536.8 m/s
same,viscosity,318.15 K,0.596 mPa·s
same,viscosity,323.15 K,0.547 mPa·s
same,viscosity,325.65 K,0.525 mPa·s
same,viscosity,328.15 K,0.504 mPa·s
same,viscosity,330.65 K,0.485 mPa·s
same,viscosity,333.15 K,0.466 mPa·s
same,viscosity,338.15 K,0.433 mPa·s
same,viscosity,340.65 K,0.418 mPa·s
